Measured values published in PubChem BioAssay AID2060336 (Molecular Pharmacology Branch, DTP, NCI, 2025).
pIC50: −log10 of the molar value.

Test system: 958767-090-R-J1-PDC spheroid growth
Test: Anticancer human tumor 958767-090-R-J1-PDC patient-derived head and neck squamous carcinoma cell line growth inhibition [IpAb]
Settings: spheroids with HUVEC and MSC; for pIC50: curve of first compound; for viability, T/C: stronger effect = lower value
Method in brief: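 Combinations with ipatasertib or abemaciclib were tested on tumour spheroids holding HUVEC (25%) and MSC (15%) alongside 60% malignant cells. Top concentration was at or near clinical Cmax (10 microM if undefined), descending in half-log steps.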
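Also: spheroids exposed to agents for 7 days.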
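For viability, T/C in this document: 100% = DMSO vehicle control wells.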

CC(=O)c1c(C)c2cnc(Nc3ccc(N4CCNCC4)cn3)nc2n(C2CCCC2)c1=O + CC(C)NCC(C(=O)N1CCN(c2ncnc3c2C(C)CC3O)CC1)c1ccc(Cl)cc1
pIC50 (second compound 0.1 µM): < 6.52 | pIC50 (second compound 0.316 µM): 6.52 | pIC50 (second compound 1 µM): > 9.02 | pIC50 (second compound 3.16 µM): > 9.02 | pIC50 (second compound 10 µM): > 9.02 | viability, T/C (second compound 0.1 µM, first compound 0.000949 µM): 83.8% | viability, T/C (second compound 0.1 µM, first compound 0.003 µM): 70.5% | viability, T/C (second compound 0.1 µM, first compound 0.00949 µM): 68.7% | viability, T/C (second compound 0.1 µM, first compound 0.03 µM): 67.7% | viability, T/C (second compound 0.1 µM, first compound 0.0949 µM): 53.4% | viability, T/C (second compound 0.1 µM, first compound 0.3 µM): 64.8% | viability, T/C (second compound 0.316 µM, first compound 0.000949 µM): 56.4% | viability, T/C (second compound 0.316 µM, first compound 0.003 µM): 65.3% | viability, T/C (second compound 0.316 µM, first compound 0.00949 µM): 54.2% | viability, T/C (second compound 0.316 µM, first compound 0.03 µM): 46.1% | viability, T/C (second compound 0.316 µM, first compound 0.0949 µM): 57.3% | viability, T/C (second compound 0.316 µM, first compound 0.3 µM): 52.5% | viability, T/C (second compound 1 µM, first compound 0.000949 µM): 48.1% | viability, T/C (second compound 1 µM, first compound 0.003 µM): 46.2% | viability, T/C (second compound 1 µM, first compound 0.00949 µM): 49.8% | viability, T/C (second compound 1 µM, first compound 0.03 µM): 41.8% | viability, T/C (second compound 1 µM, first compound 0.0949 µM): 47.2% | viability, T/C (second compound 1 µM, first compound 0.3 µM): 40.2% | viability, T/C (second compound 3.16 µM, first compound 0.000949 µM): 43.1% | viability, T/C (second compound 3.16 µM, first compound 0.003 µM): 43.6% | viability, T/C (second compound 3.16 µM, first compound 0.00949 µM): 39.1% | viability, T/C (second compound 3.16 µM, first compound 0.03 µM): 41.5% | viability, T/C (second compound 3.16 µM, first compound 0.0949 µM): 37.7% | viability, T/C (second compound 3.16 µM, first compound 0.3 µM): 31.2% | viability, T/C (second compound 10 µM, first compound 0.000949 µM): 41.4% | viability, T/C (second compound 10 µM, first compound 0.003 µM): 41.7% | viability, T/C (second compound 10 µM, first compound 0.00949 µM): 42.9% | viability, T/C (second compound 10 µM, first compound 0.03 µM): 35.5% | viability, T/C (second compound 10 µM, first compound 0.0949 µM): 30.7% | viability, T/C (second compound 10 µM, first compound 0.3 µM): 25%
